The source of these data is ChEMBL document CHEMBL1857833, “Screening and optimization of specific chemical series against human African Trypanosomiasis (HAT)”.

Converted amounts (≈) assume the structure as drawn. Some results are limits rather than exact numbers.

Series [1] is described as follows: DNDI: Cytotoxicity against L929 mouse fibroblasts, CYTO-SP, 24 hour. Type of series: toxicity, cell-based. Conditions: mouse, L929 mouse fibroblasts.
The subject of series [2] is Trypanosoma brucei. Briefly: DNDI: Inhibition of Human African Trypanosomiasis, EATRO 110, in vitro. It is filed as functional, organism-based.
Series [3] has as its system Trypanosoma brucei. Kind of series: DNDI: Inhibition of Human African Trypanosomiasis, SBRI 427, in vitro. It is filed as functional, organism-based. The conditions noted are these: Trypanosoma brucei, SBRI 427; read-out: IC50.
Series [4] can be described thus: DNDI: Lipophilicity measured in Chromatographic hydrophobicity index (CHI) assay, pH 7.4. It is filed as physicochemical. Conditions: buffer.
The nature of series [5]: DNDI: half life in human liver microsomes at a concentration of 10uM. Type of series: ADME, Microsome.
Series [6] is described as follows: DNDI: in vitro intrinsic clearance in human liver microsomes at a concentration of 10uM. It is filed as ADME, Microsome.
Series [7] in a line: DNDI: in vitro intrinsic clearance in mouse liver microsomes at a concentration of 10uM. The conditions noted are these: read-out: CLint in vitro. Type of series: ADME, Microsome.
Series [8] can be described thus: DNDI: half life in mouse liver microsomes at a concentration of 10uM. It is filed as ADME, Microsome. A general note: Liver microsomes are vesicles of endoplasmic reticulum, rich in cytochrome P450 enzymes.
The nature of series [9]: DNDI: Solubility in phosphate buffered saline at pH7.4 measured by optical density (turbidimetry) at room temperature (OD-RT). Type of series: physicochemical. Conditions: pH 7.4.
Series [10] can be described thus: DNDI: Cytotoxicity against L929 mouse fibroblasts, 72 hour. The conditions noted are these: mouse, L929 mouse fibroblasts. It is filed as toxicity, cell-based.
The test system of series [11] is Trypanosoma brucei. Briefly: (§1) DNDI: Mean survival time in days (MSD) of mice after intraperitoneal injection of Human African Trypanosomiasis (HAT), EATRO 110, in vivo at 20 mg/kg/day for 4 days. It is filed as functional, Mus musculus.
Series [12] relates to Trypanosoma brucei. Described as §1. It is filed as functional, Mus musculus. This is another data set of the same source.
For series [13] the following is noted: mouse, microsomes, 1 µM.
Description: DNDI: in vitro intrinsic clearance in mouse liver microsomes at a concentration of 1uM
Series [14] can be described thus: in vitro. Conditions: mouse, t (1 / 2).
Description: DNDI: half life in mouse liver microsomes at a concentration of 1uM
A short description of series [15]: DNDI: Solubility in phosphate buffered saline at pH7.4 measured by nephelometry at room temperature (NEPH-RT). Type of series: physicochemical. The conditions noted are these: pH 7.4.
Series [16] relates to Trypanosoma cruzi. Kind of series: DNDI: Inhibition of Chagas Disease parasite Trypanosoma cruzi (Tulahuen LacZ, Clone C4), in vitro. It is filed as functional, organism-based.
A short description of series [17]: DNDI: Cytotoxicity against L-6 rat myoblasts from skeletal muscle cells. The conditions noted are these: L-6 rat skeletal muscle myoblasts. It is filed as toxicity, cell-based, L6.
For series [18], the system named is Trypanosoma brucei rhodesiense. Briefly: DNDI: Inhibition of Human African Trypanosomiasis (HAT), STIB 900, in vitro. Type of series: functional, organism-based.
Series [19] concerns Leishmania donovani. Kind of series: DNDI: Inhibition of formation of Leishmania donovani (strain MHOM/ET/67/L82) axenic amastigotes, in vitro. Type of series: functional, organism-based.
In series [20] the test system is Plasmodium falciparum. Briefly: DNDI: Inhibition of the malaria parasite Plasmodium falciparum, in vitro. The conditions noted are these: K1. Type of series: functional, organism-based.
The subject of series [21] is Trypanosoma brucei. Kind of series: DNDI: Inhibition of Human African Trypanosomiasis, Cross 22, in vitro. Type of series: functional, organism-based.
Series [22] can be described thus: in vitro. Conditions: human, t (1 / 2).
Description: DNDI: half life in human liver microsomes at a concentration of 1uM
Series [23] can be described thus: in vitro. Conditions: human, CLint in vitro.
Description: DNDI: in vitro intrinsic clearance in human liver microsomes at a concentration of 1uM
A short description of series [24]: DNDI: % of compound remaining in mouse S9 microsomes at a concentration of 1uM after 60 mins. It is filed as ADME, subcellular, Liver, S9 fraction.
Series [25] in a line: DNDI: % of compound remaining in rat S9 microsomes at a concentration of 1uM. It is filed as ADME, subcellular, Liver, S9 fraction.

Broadly, the IC50 is the point on the concentration scale where inhibition reaches its midpoint. In turn, `O/N=C(\NC1CCCCC1)c1cccnc1Oc1ccccc1Br` came in with an IC50 at 24 h in series [1] of over 50 µg/mL. Besides, the results for the IC50 in series [2] and in [3] were 1.56 µg/mL (≈ 4 µM) and 1.13 µg/mL (≈ 2.9 µM), respectively.

As usually defined, the chromatographic logD is lipophilicity estimated from chromatographic retention. Low values mean lower lipophilicity, high ones higher lipophilicity. As a reminder, the half-life is the time in which the quantity being followed falls by half. A word on the solubility (kinetic): it is the concentration staying in solution when a stock, usually in DMSO, is diluted into the medium. In [1], `CCc1ccccc1Oc1ncccc1/C(=N\O)NC1CCCCC1` returned an IC50 at 24 h of over 50 µg/mL. Also, the values for the IC50 in series [2] and in series [3] were 2.15 µg/mL (≈ 6.33 µM) and 0.79 µg/mL (≈ 2.33 µM), respectively. Also, the chromatographic logD in series [4] stood at 4.31. Moreover, the half-life at 10 µM in series [5] was 106 min; in [8], 21 min. This compound also gave a CLint in vitro in series [6] of 27 µL/min/mg. Further, in [7], the microsomal CLint at 10 µM was 140 µL/min/mg. In [9], this compound had a solubility (kinetic) of 6.3 µM (≈ 2.14 µg/mL).

Turning to `CCCCCC(C)NCc1coc(-c2ccccc2Oc2ccccc2)n1` (centres undefined), the IC50 at 72 h in [10] was determined as 6.3 µg/mL (≈ 17.3 µM). In addition, the IC50 in [3] stood at 2.98 µg/mL (≈ 8.18 µM). In addition, the MSD in [11] turned out to be 4 days; in [12] it was 5 days. In series [13], this compound displayed a CLint in vitro of 220 µL/min/mg. Further, the half-life at 1 µM in [14] (liver microsomes) stood at 4 min.

`CCCCCOc1ccc(-c2nc(CN[C@@H]3C[C@@H]4C[C@H]([C@H]3C)C4(C)C)co2)cc1` returned an IC50 at 24 h in series [1] of 38.9 µg/mL (≈ 98.1 µM). Further, the IC50 at 72 h in series [10] was under 3.13 µg/mL. In addition, the IC50 in [3] was 0.12 µg/mL (≈ 0.303 µM). The same compound returned an MSD in series [12] of 4.5 days. In [4], this compound registered a chromatographic logD of 6.5. The solubility (kinetic) in [15] came out at 2 µM (≈ 0.793 µg/mL). In series [13], this compound returned a CLint in vitro of 60 µL/min/mg. For the same compound, the half-life at 1 µM in [14] (liver microsomes) was determined as 14 min.

For the compound `CC1CC(NCc2coc(-c3ccc(OC(C)C)cc3)n2)CC(C)(C)C1` (centres undefined), in series [10], half-maximal inhibition (IC50 at 72 h) was put at 1.51 µg/mL (≈ 4.24 µM). In addition, the IC50 in series [3] stood at 0.79 µg/mL (≈ 2.22 µM). The MSD in series [11] turned out to be 4 days; in series [12], 3.5 days. In [13], this compound registered a CLint in vitro of 26 µL/min/mg. The same compound showed a half-life at 1 µM in series [14] (liver microsomes) of 33 min.

`O/N=C(/NC1CCCCC1)c1cccnc1Oc1ccccc1F`: the IC50 is over 30 µg/mL in [16]; 54.3 µg/mL (≈ 165 µM) in series [17]; 1.5 µg/mL (≈ 4.55 µM) in series [2]; 0.58 µg/mL (≈ 1.76 µM) in series [3]; 20.8 µg/mL (≈ 63.1 µM) in series [18]; 19.9 µg/mL (≈ 60.5 µM) in [19]. Moreover, the IC50 in series [20] is over 5 µg/mL. For the same compound, in series [1], the IC50 at 24 h is over 50 µg/mL. Moreover, the IC50 at 72 h in series [10] is over 10 µg/mL. In addition, the chromatographic logD in series [4] is 3.99. The half-life at 10 µM stood at 185 min in series [5] and 10 min in series [8]. This compound came in with a CLint in vitro in [6] of 16 µL/min/mg. The microsomal CLint at 10 µM in series [7] was 275 µL/min/mg. Further, the solubility (kinetic) in series [9] amounted to 50 µM (≈ 16.5 µg/mL).

`CSc1ccccc1Oc1ncccc1/C(=N\O)NC1CCCCC1`: the IC50 at 24 h in [1] was over 50 µg/mL. Further, the IC50 in series [2] is 1.34 µg/mL (≈ 3.75 µM); in series [3] it was 0.62 µg/mL (≈ 1.73 µM).

On to `CCCCc1ccc(-c2nc(CNC[C@@H]3CC[C@H]4C[C@@H]3C4(C)C)co2)cc1`, for which the IC50 was 2.61 µg/mL (≈ 7.12 µM) in series [16]; 2.89 µg/mL (≈ 7.88 µM) in series [17]; 0.31 µg/mL (≈ 0.846 µM) in series [21]; 0.361 µg/mL (≈ 0.985 µM) in series [18]; 4.84 µg/mL (≈ 13.2 µM) in series [19]; 0.389 µg/mL (≈ 1.06 µM) in [20]. The compound also displayed an IC50 at 24 h in [1] of over 50 µg/mL. Also, in series [10], the IC50 at 72 h was over 10 µg/mL. In series [11], this compound had an MSD of 3.5 days. Moreover, the chromatographic logD in series [4] turned out to be 6.68. In series [15], this compound gave a solubility (kinetic) of 3 µM (≈ 1.1 µg/mL). Also, the half-life at 1 µM in [22] (liver microsomes) amounted to 39 min. In series [23] (liver microsomes), the microsomal CLint at 1 µM was found to be 22 µL/min/mg.

As a reminder, the amount remaining is what is left of the initial amount, in per cent. Read a low amount remaining as a greater loss. In the case of `CCCCCOc1ccc(-c2nc(CNC(C)CCCCC)co2)cc1` (centres undefined), in series [1], the IC50 at 24 h was determined as 32.4 µg/mL (≈ 90.4 µM). In addition, the concentration for half-maximal inhibition (IC50) at 72 h in series [10] is under 3.13 µg/mL. Besides, in series [3], the IC50 worked out at 0.33 µg/mL (≈ 0.92 µM). In series [24], this compound displayed an amount remaining at 1 h, 1 µM of 49.7%. The compound further yielded a fraction remaining at 1 µM in series [25] of 0.555%. Moreover, the CLint in vitro in [13] came to 13 µL/min/mg. For the same compound, the half-life at 1 µM in series [14] (liver microsomes) came out at 68 min.

Take `CCCCc1ccc(-c2nc(CN[C@@H]3C[C@@H]4C[C@H]([C@H]3C)C4(C)C)co2)cc1`: the IC50 in series [16] came out at 1.4 µg/mL (≈ 3.82 µM); in [17] it was 3.21 µg/mL (≈ 8.76 µM); in [21], 0.57 µg/mL (≈ 1.56 µM); in series [18], 0.357 µg/mL (≈ 0.974 µM); in series [19], 4.61 µg/mL (≈ 12.6 µM); in series [20], 0.497 µg/mL (≈ 1.36 µM). In series [1], this compound yielded an IC50 at 24 h of over 50 µg/mL. The IC50 at 72 h in series [10] was determined as 0.79 µg/mL (≈ 2.16 µM). Also, in series [11], the MSD was 3.5 days. In series [4], this compound registered a chromatographic logD of 6.6. For the same compound, the solubility (kinetic) in series [15] is 6 µM (≈ 2.2 µg/mL). Further, the half-life at 1 µM in [22] (microsomes) came out at 81 min; in series [14] (microsomes), 13 min. In series [23] (microsomes), this compound showed a microsomal CLint at 1 µM of 10 µL/min/mg.
